According to PubChem BioAssay (NCI):
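96-well plates; 48 h exposure; 5 concentrations. Endpoints by linear interpolation between flanking doses. Not reached: highest tested concentration assigned. The concentration for full growth arrest is given as TGI.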

Columns and labels:
Test in all cases: DTP human tumour cell line panel, 48 h
[1] = tested on: LOX IMVI melanoma
[2] = tested on: SW-620 colon
[3] = tested on: SK-MEL-28 melanoma
[4] = tested on: HCT-116 colon
[5] = tested on: NCI-H522 lung
[6] = tested on: OVCAR-5 ovarian
[7] = tested on: SN12C renal
[8] = tested on: 786-0 renal
[9] = tested on: HCC-2998 colon
[10] = tested on: PC-3 prostate
[11] = tested on: HS 578T breast
[12] = tested on: SK-OV-3 ovarian
[13] = tested on: A549 NSCLC
[14] = tested on: MCF7 breast
[15] = tested on: IGROV1 ovarian
[16] = tested on: SNB-75 CNS
[17] = tested on: MDA-N
[18] = tested on: SF-295 CNS
[19] = tested on: UACC-257 melanoma
[20] = tested on: CAKI-1 renal
[21] = tested on: BT-549 breast
[22] = tested on: COLO 205 colon
[23] = tested on: MOLT-4 leukemia
[24] = tested on: OVCAR-8 ovarian
[25] = tested on: HOP-62 NSCLC
[26] = tested on: T-47D breast
[27] = tested on: MDA-MB-231 breast
[28] = tested on: CCRF-CEM leukemia
[29] = tested on: UO-31 renal
[30] = tested on: HCT-15 colon
[31] = tested on: OVCAR-3 ovarian
[32] = tested on: HOP-92 NSCLC
[33] = tested on: MALME-3M melanoma
[34] = tested on: SK-MEL-2 melanoma
[35] = tested on: K-562 leukemia
[36] = tested on: A498 renal
[37] = tested on: KM12 colon
[38] = tested on: DU-145 prostate
[39] = tested on: UACC-62 melanoma
[40] = tested on: NCI/ADR-RES ovarian
[41] = tested on: OVCAR-4 ovarian
[42] = tested on: EKVX NSCLC
[43] = tested on: MDA-MB-435
[44] = tested on: HL-60(TB) leukemia
[45] = tested on: SR leukemia
[46] = tested on: TK-10 renal
[47] = tested on: U251 CNS
[48] = tested on: NCI-H460 lung
[49] = tested on: SK-MEL-5 melanoma
[50] = tested on: SF-539 CNS
[51] = tested on: SNB-19 CNS
[52] = tested on: NCI-H23 lung
[53] = tested on: HT29 colon
[54] = tested on: RPMI-8226 leukemia
[55] = tested on: SF-268 CNS
[56] = tested on: ACHN renal
[57] = tested on: M14 melanoma

In the case of `C=C(C)C(=O)CC[C@@H](C)[C@H]1[C@@H](OC2OC(CO)C(O)C(O)C2O)C[C@@]2(C)[C@@H]3C[C@H](O)C4C(C)(C)[C@@H](OC5OC(CO)C(O)C(O)C5O)CC[C@@]45C[C@@]35CC[C@]12C` (some centres not stated), the TGI [1] is reported as over 100 µM, the TGI [2] is reported as over 100 µM and the TGI [3] is reported as over 100 µM. It also gave a TGI [4] of over 100 µM, a TGI [5] of over 100 µM and a TGI [6] of over 100 µM. For the same molecule, the TGI [7] was over 100 µM, the TGI [8] was over 100 µM and the TGI [9] was over 100 µM. It also gave a TGI [10] of over 100 µM, a TGI [11] of over 100 µM and a TGI [12] of over 100 µM. For the same molecule, the TGI [13] was over 100 µM, the TGI [14] was over 100 µM and the TGI [15] was over 100 µM. The TGI [16] was over 100 µM, the TGI [17] was 55.6 µM and the TGI [18] was over 100 µM. For the same molecule, the TGI [19] was over 100 µM, the TGI [20] was over 100 µM and the TGI [21] was over 100 µM. It also gave a TGI [22] of over 100 µM, a TGI [23] of over 100 µM and a TGI [24] of over 100 µM. It also gave a TGI [25] of over 100 µM, a TGI [26] of over 100 µM and a TGI [27] of over 100 µM. For the same molecule, the TGI [28] was over 100 µM, the TGI [29] was over 100 µM and the TGI [30] was over 100 µM. For the same molecule, the TGI [31] was over 100 µM, the TGI [32] was over 100 µM and the TGI [33] was over 100 µM. The TGI [34] was over 100 µM, the TGI [35] was over 100 µM and the TGI [36] was over 100 µM. It also gave a TGI [37] of over 100 µM, a TGI [38] of over 100 µM and a TGI [39] of over 100 µM. For the same molecule, the TGI [40] was over 100 µM, the TGI [41] was over 100 µM and the TGI [42] was over 100 µM. The TGI [43] was over 100 µM, the TGI [44] was over 100 µM and the TGI [45] was over 100 µM. It also gave a TGI [46] of over 100 µM, a TGI [47] of over 100 µM and a TGI [48] of over 100 µM. It also gave a TGI [49] of over 100 µM, a TGI [50] of over 100 µM and a TGI [51] of over 100 µM. The TGI [52] was over 100 µM, the TGI [53] was over 100 µM and the TGI [54] was over 100 µM. The TGI [55] was over 100 µM, the TGI [56] was over 100 µM and the TGI [57] was over 100 µM.
